The values below come from patent publication US20250145665A1, “MACROCYCLIC PEPTIDES USEFUL AS MODULATORS OF TNF ALPHA” (Bristol-Myers Squibb Company, priority 2023, published 2025).

In this assay the target is TNFα (Homo sapiens, UniProt P01375). The assay can be described thus: TNF-Induced HEK-Blue Assay. Format: cell-based.
Where [1] appears, read: HEK-Blue-CD40L cells, NF-kB-driven secreted alkaline phosphatase reporter, TNFα 0.5 ng/ml, 18 h, read-out: TNF induced HEK-Blue assay IC50 value.

Read-outs that look alike come from different tables or passages of the source. Starred links: 1 amine or outer side, 2 acyl side, 3 side chain; linkers in the order of their positions; H or OH if unused. Positions of bridges follow the written chain, without caps; N, C: chain ends. Non-standard residues stand in square brackets, D forms with d. Residues, ends and D or L forms follow the SMILES beside them. *: point of attachment. Bip(4'-NHCO-C6H4-3-CH2COOH) = N[C@@H](Cc1ccc(-c2ccc(NC(=O)c3cccc(CC(=O)O)c3)cc2)cc1)C(=O)O; Bip(4'-NHCO-C6H4-4-CH2COOH) = N[C@@H](Cc1ccc(-c2ccc(NC(=O)c3ccc(CC(=O)O)cc3)cc2)cc1)C(=O)O; Bip(4'-NH) = O=C([C@H](Cc1ccc(-c2ccc(N[*:3])cc2)cc1)N[*:1])[*:2]; Indazole3carbonyl(1-CH2COOH) = O=C(O)Cn1nc(C(=O)*)c2ccccc21; Bip(4'-NHAc) = CC(=O)Nc1ccc(-c2ccc(C[C@H](N)C(=O)O)cc2)cc1; Indole3carbonyl(1-CH2COOH) = O=C(O)Cn1cc(C(=O)*)c2ccccc21; dArg(ω-Bn) = N=C(NCCC[C@@H](N)C(=O)O)NCc1ccccc1; Ala(morpholin-4-yl) = N[C@@H](CN1CCOCC1)C(=O)O; Phe(3-CONH2) = NC(=O)c1cccc(C[C@H](N)C(=O)O)c1; Bip = N[C@@H](Cc1ccc(-c2ccccc2)cc1)C(=O)O; 2Pal = N[C@@H](Cc1ccccn1)C(=O)O; 2Thi = N[C@@H](Cc1cccs1)C(=O)O; Sar = CNCC(=O)O

Chain of TNFα (P01375 77-233 limits assumed): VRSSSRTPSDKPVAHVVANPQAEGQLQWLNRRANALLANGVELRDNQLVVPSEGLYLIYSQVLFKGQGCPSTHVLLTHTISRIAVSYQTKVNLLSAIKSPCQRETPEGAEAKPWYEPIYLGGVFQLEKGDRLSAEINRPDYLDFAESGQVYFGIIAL

Usually IC50 stands for the concentration needed to halve the response being measured. `CC(C)C[C@@H]1NC(=O)[C@H](Cc2cccc(C(N)=O)c2)NC(=O)[C@H](C(C)C)NC(=O)[C@@H]2CCCN2C(=O)[C@H](C(C)C)NC(=O)[C@@H](CCCNC(=N)NCc2ccccc2)NC(=O)[C@H](CC(=O)O)NC(=O)[C@H](Cc2ccc(O)cc2)NC(=O)CN(C)C(=O)[C@H](Cc2ccc(-c3ccc(NC(=O)c4nn(CC(=O)O)c5ccccc45)cc3)cc2)NC(=O)[C@H](Cc2ccc(-c3ccccc3)cc2)NC(=O)[C@H](CN2CCOCC2)NC(=O)CSC[C@@H](C(=O)NCC(N)=O)NC1=O` [Example 600] ({CH2CO}-[Ala(morpholin-4-yl)][Bip][Bip(4'-NH)](Indazole3carbonyl(1-CH2COOH))[Sar]YD[dArg(ω-Bn)]VPV[Phe(3-CONH2)]LCG-NH2; thioether N-13) displayed an IC50 of less than 50 nM. The compound `CC(C)C[C@@H]1NC(=O)[C@H](Cc2cccc(C(N)=O)c2)NC(=O)[C@H](C(C)C)NC(=O)[C@@H]2CCCN2C(=O)[C@H](C(C)C)NC(=O)[C@@H](CCCNC(=N)NCc2ccccc2)NC(=O)[C@H](CC(=O)O)NC(=O)[C@H](Cc2ccc(O)cc2)NC(=O)CN(C)C(=O)[C@H](Cc2ccc(-c3ccc(NC(=O)c4cn(CC(=O)O)c5ccccc45)cc3)cc2)NC(=O)[C@H](Cc2ccc(-c3ccccc3)cc2)NC(=O)[C@H](CN2CCOCC2)NC(=O)CSC[C@@H](C(=O)NCC(N)=O)NC1=O` [Example 601] ({CH2CO}-[Ala(morpholin-4-yl)][Bip][Bip(4'-NH)](Indole3carbonyl(1-CH2COOH))[Sar]YD[dArg(ω-Bn)]VPV[Phe(3-CONH2)]LCG-NH2; thioether N-13) had an IC50 of less than 50 nM. In the case of `CC(C)C[C@@H]1NC(=O)[C@H](Cc2cccc(C(N)=O)c2)NC(=O)[C@H](C(C)C)NC(=O)[C@@H]2CCCN2C(=O)[C@H](C(C)C)NC(=O)[C@@H](CCCNC(=N)NCc2ccccc2)NC(=O)[C@H](CC(=O)O)NC(=O)[C@H](Cc2ccc(O)cc2)NC(=O)CN(C)C(=O)[C@H](Cc2ccc(-c3ccc(NC(=O)c4ccc(CC(=O)O)cc4)cc3)cc2)NC(=O)[C@H](Cc2ccc(-c3ccccc3)cc2)NC(=O)[C@H](CN2CCOCC2)NC(=O)CSC[C@@H](C(=O)NCC(N)=O)NC1=O` [Example 602] ({CH2CO}-[Ala(morpholin-4-yl)][Bip][Bip(4'-NHCO-C6H4-4-CH2COOH)][Sar]YD[dArg(ω-Bn)]VPV[Phe(3-CONH2)]LCG-NH2; thioether N-13), the IC50 under setting [1] is less than 50 nM. Take `CC(C)C[C@@H]1NC(=O)[C@H](Cc2cccc(C(N)=O)c2)NC(=O)[C@H](C(C)C)NC(=O)[C@@H]2CCCN2C(=O)[C@H](C(C)C)NC(=O)[C@@H](CCCNC(=N)NCc2ccccc2)NC(=O)[C@H](CC(=O)O)NC(=O)[C@H](Cc2ccc(O)cc2)NC(=O)CN(C)C(=O)[C@H](Cc2ccc(-c3ccc(NC(=O)c4cccc(CC(=O)O)c4)cc3)cc2)NC(=O)[C@H](Cc2ccc(-c3ccccc3)cc2)NC(=O)[C@H](CN2CCOCC2)NC(=O)CSC[C@@H](C(=O)NCC(N)=O)NC1=O` [Example 603] ({CH2CO}-[Ala(morpholin-4-yl)][Bip][Bip(4'-NHCO-C6H4-3-CH2COOH)][Sar]YD[dArg(ω-Bn)]VPV[Phe(3-CONH2)]LCG-NH2; thioether N-13): under setting [1], the half-inhibitory concentration (IC50) is less than 50 nM. In the case of `CC[C@H](C)[C@@H]1NC(=O)[C@@H](CCCNC(=N)N)NC(=O)[C@H](CC(=O)O)NC(=O)[C@H](Cc2ccccn2)NC(=O)CN(C)C(=O)[C@H](Cc2ccc(-c3ccc(NC(C)=O)cc3)cc2)NC(=O)[C@H](Cc2ccc(-c3ccccc3)cc2)NC(=O)[C@H](CN2CCOCC2)NC(=O)CSC[C@@H](C(=O)NCC(N)=O)NC(=O)[C@H](CC(C)C)NC(=O)[C@H](Cc2cccs2)NC(=O)[C@H](C(C)C)NC(=O)[C@@H]2CCCN2C1=O` [Example 604] ({CH2CO}-[Ala(morpholin-4-yl)][Bip][Bip(4'-NHAc)][Sar][2Pal]D[dR]IPV[2Thi]LCG-NH2; thioether N-13), the IC50 under setting [1] is less than 50 nM.
